Reference: ChEMBL document CHEMBL1156666, “Jerantinines A-G, cytotoxic Aspidosperma alkaloids from Tabernaemontana corymbosa” (J Nat Prod, 2008)

Legend:
[1] = Cytotoxicity against vincristine sensitive human KB/S cells; assay type: functional, cell-based
[2] = Cytotoxicity against vincristine resistant human KB/VJ300 cells; assay type: functional, cell-based

**Q.** What does the source list for `CC[C@]12C=CCN3CC[C@]4(C(=C(C(=O)OC)C1)Nc1cc(OC)c(OC)cc14)[C@@H]32` [10-O-METHYLJERANTININE A]?
**A.** IC50 [1]: 12000 nM; IC50 [2]: 13600 nM

**Q.** With `CC[C@@]12CC(C(=O)OC)=C3Nc4cc(OC)c(OC)cc4[C@@]34CCN(C[C@@H]3O[C@@H]31)[C@@H]24` [10-O-METHYLJERANTININE B] as the molecule, how does the IC50 [1] read?
**A.** 7360 nM

**Q.** What about the IC50 [2] of the same molecule?
**A.** 10700 nM

**Q.** For `CC[C@]12C=CCN3CC[C@]4(C(=C(C(=O)OC)C1)Nc1cc(OC)c(OC(C)=O)cc14)[C@@H]32` [JERANTININE A ACETATE], which IC50 [1] is on record?
**A.** 1040 nM

**Q.** And the IC50 [2]?
**A.** 830 nM

**Q.** What does the source list for `CC[C@]12C=CCN3CC[C@]4(C(=C(C(=O)OC)C1)Nc1cc(OC)c(O)cc14)[C@@H]32` [JERANTININE A]?
**A.** IC50 [1]: 1990 nM; IC50 [2]: 1730 nM

**Q.** For `CC[C@@]12CC(C(=O)OC)=C3Nc4cc(OC)c(OC(C)=O)cc4[C@@]34CCN(C[C@@H]3O[C@@H]31)[C@@H]24` [JERANTININE B ACETATE], which IC50 [1] is on record?
**A.** 700 nM

**Q.** What about the IC50 [2] of the same molecule?
**A.** 750 nM

**Q.** Which IC50 [1] does the source give for `CC[C@@]12CC(C(=O)OC)=C3Nc4cc(OC)c(O)cc4[C@@]34CCN(C[C@@H]3O[C@@H]31)[C@@H]24` [JERANTININE B] here?
**A.** 1110 nM

**Q.** What about the IC50 [2] of the same molecule?
**A.** 950 nM

**Q.** Which IC50 [1] does the source give for `CC[C@]12C=CC(=O)N3CC[C@]4(C(=C(C(=O)OC)C1)Nc1cc(OC)c(O)cc14)[C@@H]32` [JERANTININE C] here?
**A.** 810 nM

**Q.** And the IC50 [2]?
**A.** 1540 nM

**Q.** For `CC[C@@]12CC(C(=O)OC)=C3Nc4cc(OC)c(O)cc4[C@@]34CCN(C(=O)[C@@H]3O[C@@H]31)[C@@H]24` [JERANTININE D], which IC50 [1] is on record?
**A.** 680 nM

**Q.** What about the IC50 [2] of the same molecule?
**A.** 950 nM

**Q.** For `CC[C@]12CCCN3CC[C@]4(C(=C(C(=O)OC)C1)Nc1cc(OC)c(O)cc14)[C@@H]32` [JERANTININE E], which IC50 [1] is on record?
**A.** 2550 nM

**Q.** What about the IC50 [2] of the same molecule?
**A.** 2030 nM

**Q.** Which IC50 [1] does the source give for `COC(=O)C1=C2Nc3cc(OC)c(O)cc3[C@@]23CCN2CC[C@@H]4OCC[C@]4(C1)[C@H]23` [JERANTININE F] here?
**A.** 12800 nM

**Q.** And the IC50 [2]?
**A.** 12300 nM

**Q.** With `CC[C@]1(O)C[C@H]2CN(CCc3c([nH]c4ccccc34)[C@@](C(=O)OC)(c3cc4c(cc3OC)N(C=O)[C@H]3[C@@](O)(C(=O)OC)[C@H](OC(C)=O)[C@]5(CC)C=CCN6CC[C@]43[C@@H]65)C2)C1` [VINCRISTINE] as the molecule, how does the IC50 [1] read?
**A.** 5.4 nM

**Q.** What about the IC50 [2] of the same molecule?
**A.** 1200 nM
